Tests used:
[1] = biological target: Vascular endothelial growth factor receptor 2 (Homo sapiens, UniProt P35968); assay: Inhibition of recombinant KDR by HTRF assay
[2] = test system: HUVEC; assay: Inhibition of bFGF-stimulated HUVEC cell proliferation treated before 2 hrs of bFGF challenge assessed after 72 hrs; type: functional, cell-based; details: Homo sapiens
[3] = test system: HUVEC; assay: Inhibition of VEGF-stimulated HUVEC cell proliferation treated before 2 hrs of VEGF challenge assessed after 72 hrs; type: functional, cell-based; details: Homo sapiens
[4] = Clearance in Sprague-Dawley rat at 1 mg/kg, iv or 10 mg/kg, po; type: ADME, organism-based; details: in vivo
[5] = Bioavailability in Sprague-Dawley rat at 1 mg/kg, iv or 10 mg/kg, po; type: ADME, organism-based; details: in vivo
[6] = Half life in Sprague-Dawley rat at 1 mg/kg, iv or 10 mg/kg, po; type: ADME, organism-based; details: in vivo
[7] = Volume of distribution at steady state in Sprague-Dawley rat at 1 mg/kg, iv or 10 mg/kg, po; type: ADME, organism-based; details: in vivo, read-out: Vdss
[8] = AUC (0 to infinity) in Sprague-Dawley rat at 1 mg/kg, iv or 10 mg/kg, po; type: ADME, organism-based; details: plasma
[9] = biological target: Angiopoietin-1 receptor (Homo sapiens, UniProt Q02763); assay: Inhibition of Tie 2
[10] = biological target: T1, Aurora kinase A (Homo sapiens, UniProt O14965); assay: Inhibition of aurora 2 kinase
T1 sequence (O14965 whole entry): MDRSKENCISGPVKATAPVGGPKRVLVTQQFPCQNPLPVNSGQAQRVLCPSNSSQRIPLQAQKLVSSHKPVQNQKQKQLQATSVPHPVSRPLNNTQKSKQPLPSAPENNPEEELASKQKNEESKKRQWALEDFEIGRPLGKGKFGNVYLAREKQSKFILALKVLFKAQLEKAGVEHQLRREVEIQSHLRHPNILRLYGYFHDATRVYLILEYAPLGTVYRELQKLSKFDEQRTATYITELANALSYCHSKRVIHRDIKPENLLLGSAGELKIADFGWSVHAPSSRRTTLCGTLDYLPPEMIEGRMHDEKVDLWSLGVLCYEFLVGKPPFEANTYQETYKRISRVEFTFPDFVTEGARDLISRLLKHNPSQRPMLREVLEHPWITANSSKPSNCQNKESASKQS

[11] = test system: Mus musculus; assay: Plasma concentration in mouse VEGF expressing HEK293 cells xenografted in athymic nude mouse at 30 mg/kg, po; type: ADME, organism-based; parameters: dose 30 mg/kg, route oral; details: in vivo
[12] = biological target: Hepatocyte growth factor receptor (Homo sapiens, UniProt P08581); assay: Inhibition of cMET
[13] = test system: HEK293; assay: Inhibition of vascular permeability in mouse VEGF expressing HEK293 cells xenografted in po dosed athymic nude mouse; type: functional, organism-based; details: Homo sapiens
[14] = biological target: Aurora kinase B (Homo sapiens, UniProt Q96GD4); assay: Inhibition of aurora 1 kinase
[15] = test system: Mus musculus; assay: Plasma concentration in mouse VEGF expressing HEK293 cells xenografted in athymic nude mouse at 10 mg/kg, po; type: ADME, organism-based; parameters: dose 10 mg/kg, route oral; details: in vivo
[16] = biological target: Phosphatidylinositol 4,5-bisphosphate 3-kinase catalytic subunit alpha isoform (Homo sapiens, UniProt P42336); assay: Inhibition of PI3K
[17] = biological target: Mitogen-activated protein kinase 14 (Homo sapiens, UniProt Q16539); assay: Inhibition of p38alpha

Chain of Vascular endothelial growth factor receptor 2 (P35968 whole entry): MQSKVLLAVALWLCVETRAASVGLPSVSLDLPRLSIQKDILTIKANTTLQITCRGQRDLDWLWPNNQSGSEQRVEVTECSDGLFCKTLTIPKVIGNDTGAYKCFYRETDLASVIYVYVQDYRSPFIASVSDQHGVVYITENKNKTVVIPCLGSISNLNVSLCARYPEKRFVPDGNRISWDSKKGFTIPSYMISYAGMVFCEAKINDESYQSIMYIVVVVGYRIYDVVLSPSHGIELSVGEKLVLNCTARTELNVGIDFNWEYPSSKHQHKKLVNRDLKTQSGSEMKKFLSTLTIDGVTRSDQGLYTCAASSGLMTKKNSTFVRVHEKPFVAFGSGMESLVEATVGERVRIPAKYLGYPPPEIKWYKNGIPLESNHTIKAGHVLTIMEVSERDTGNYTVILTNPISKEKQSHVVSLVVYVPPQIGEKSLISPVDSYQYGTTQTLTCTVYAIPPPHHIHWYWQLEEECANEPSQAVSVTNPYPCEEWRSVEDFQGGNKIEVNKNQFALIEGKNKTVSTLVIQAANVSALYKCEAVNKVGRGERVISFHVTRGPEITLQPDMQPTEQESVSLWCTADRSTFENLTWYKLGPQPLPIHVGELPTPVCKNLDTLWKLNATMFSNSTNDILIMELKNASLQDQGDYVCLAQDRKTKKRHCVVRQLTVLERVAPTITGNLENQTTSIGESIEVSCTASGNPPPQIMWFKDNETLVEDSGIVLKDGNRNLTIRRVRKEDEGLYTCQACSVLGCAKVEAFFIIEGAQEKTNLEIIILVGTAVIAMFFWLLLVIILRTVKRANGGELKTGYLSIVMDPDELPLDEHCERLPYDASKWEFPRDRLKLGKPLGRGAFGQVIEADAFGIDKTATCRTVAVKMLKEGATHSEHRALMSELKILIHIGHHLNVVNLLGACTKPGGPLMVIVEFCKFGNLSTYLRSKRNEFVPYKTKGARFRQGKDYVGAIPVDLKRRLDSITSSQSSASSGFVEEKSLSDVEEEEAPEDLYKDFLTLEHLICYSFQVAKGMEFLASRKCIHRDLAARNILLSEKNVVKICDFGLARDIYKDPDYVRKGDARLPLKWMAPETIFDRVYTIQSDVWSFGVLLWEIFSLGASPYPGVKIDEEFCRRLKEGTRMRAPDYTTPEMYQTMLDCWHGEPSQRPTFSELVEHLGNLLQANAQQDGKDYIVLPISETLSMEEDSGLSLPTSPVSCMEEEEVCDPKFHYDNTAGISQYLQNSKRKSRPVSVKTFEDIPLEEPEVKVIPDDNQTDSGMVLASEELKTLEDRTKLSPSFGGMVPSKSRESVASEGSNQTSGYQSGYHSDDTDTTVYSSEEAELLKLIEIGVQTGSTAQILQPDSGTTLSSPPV
Chain of Phosphatidylinositol 4,5-bisphosphate 3-kinase catalytic subunit alpha isoform (P42336 whole entry, canonical isoform): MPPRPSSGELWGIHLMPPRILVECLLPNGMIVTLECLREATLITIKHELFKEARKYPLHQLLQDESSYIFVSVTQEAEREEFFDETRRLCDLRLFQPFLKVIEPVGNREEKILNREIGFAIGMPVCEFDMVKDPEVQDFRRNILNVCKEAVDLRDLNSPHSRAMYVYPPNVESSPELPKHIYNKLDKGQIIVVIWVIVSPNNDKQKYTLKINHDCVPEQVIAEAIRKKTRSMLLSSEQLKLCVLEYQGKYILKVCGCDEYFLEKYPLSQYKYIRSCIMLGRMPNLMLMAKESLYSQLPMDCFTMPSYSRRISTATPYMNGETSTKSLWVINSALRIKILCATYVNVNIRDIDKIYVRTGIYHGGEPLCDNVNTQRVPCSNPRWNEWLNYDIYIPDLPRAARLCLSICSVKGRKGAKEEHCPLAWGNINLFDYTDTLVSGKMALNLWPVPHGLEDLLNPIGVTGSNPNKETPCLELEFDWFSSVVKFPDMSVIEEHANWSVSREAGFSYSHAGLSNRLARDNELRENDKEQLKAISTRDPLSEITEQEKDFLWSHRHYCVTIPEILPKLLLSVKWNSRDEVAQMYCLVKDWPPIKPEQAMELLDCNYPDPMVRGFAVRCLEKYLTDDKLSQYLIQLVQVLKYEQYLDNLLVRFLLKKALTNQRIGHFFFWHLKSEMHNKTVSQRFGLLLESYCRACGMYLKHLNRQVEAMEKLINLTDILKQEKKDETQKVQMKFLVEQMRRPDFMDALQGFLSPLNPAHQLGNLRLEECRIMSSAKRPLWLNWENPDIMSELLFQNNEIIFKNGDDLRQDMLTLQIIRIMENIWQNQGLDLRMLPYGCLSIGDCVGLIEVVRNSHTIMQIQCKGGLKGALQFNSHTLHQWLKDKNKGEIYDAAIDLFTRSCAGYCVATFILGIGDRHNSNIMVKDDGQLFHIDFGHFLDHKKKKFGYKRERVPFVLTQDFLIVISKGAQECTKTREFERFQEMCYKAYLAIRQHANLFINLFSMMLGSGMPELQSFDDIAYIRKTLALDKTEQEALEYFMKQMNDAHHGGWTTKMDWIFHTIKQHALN
Chain of Hepatocyte growth factor receptor (P08581 whole entry): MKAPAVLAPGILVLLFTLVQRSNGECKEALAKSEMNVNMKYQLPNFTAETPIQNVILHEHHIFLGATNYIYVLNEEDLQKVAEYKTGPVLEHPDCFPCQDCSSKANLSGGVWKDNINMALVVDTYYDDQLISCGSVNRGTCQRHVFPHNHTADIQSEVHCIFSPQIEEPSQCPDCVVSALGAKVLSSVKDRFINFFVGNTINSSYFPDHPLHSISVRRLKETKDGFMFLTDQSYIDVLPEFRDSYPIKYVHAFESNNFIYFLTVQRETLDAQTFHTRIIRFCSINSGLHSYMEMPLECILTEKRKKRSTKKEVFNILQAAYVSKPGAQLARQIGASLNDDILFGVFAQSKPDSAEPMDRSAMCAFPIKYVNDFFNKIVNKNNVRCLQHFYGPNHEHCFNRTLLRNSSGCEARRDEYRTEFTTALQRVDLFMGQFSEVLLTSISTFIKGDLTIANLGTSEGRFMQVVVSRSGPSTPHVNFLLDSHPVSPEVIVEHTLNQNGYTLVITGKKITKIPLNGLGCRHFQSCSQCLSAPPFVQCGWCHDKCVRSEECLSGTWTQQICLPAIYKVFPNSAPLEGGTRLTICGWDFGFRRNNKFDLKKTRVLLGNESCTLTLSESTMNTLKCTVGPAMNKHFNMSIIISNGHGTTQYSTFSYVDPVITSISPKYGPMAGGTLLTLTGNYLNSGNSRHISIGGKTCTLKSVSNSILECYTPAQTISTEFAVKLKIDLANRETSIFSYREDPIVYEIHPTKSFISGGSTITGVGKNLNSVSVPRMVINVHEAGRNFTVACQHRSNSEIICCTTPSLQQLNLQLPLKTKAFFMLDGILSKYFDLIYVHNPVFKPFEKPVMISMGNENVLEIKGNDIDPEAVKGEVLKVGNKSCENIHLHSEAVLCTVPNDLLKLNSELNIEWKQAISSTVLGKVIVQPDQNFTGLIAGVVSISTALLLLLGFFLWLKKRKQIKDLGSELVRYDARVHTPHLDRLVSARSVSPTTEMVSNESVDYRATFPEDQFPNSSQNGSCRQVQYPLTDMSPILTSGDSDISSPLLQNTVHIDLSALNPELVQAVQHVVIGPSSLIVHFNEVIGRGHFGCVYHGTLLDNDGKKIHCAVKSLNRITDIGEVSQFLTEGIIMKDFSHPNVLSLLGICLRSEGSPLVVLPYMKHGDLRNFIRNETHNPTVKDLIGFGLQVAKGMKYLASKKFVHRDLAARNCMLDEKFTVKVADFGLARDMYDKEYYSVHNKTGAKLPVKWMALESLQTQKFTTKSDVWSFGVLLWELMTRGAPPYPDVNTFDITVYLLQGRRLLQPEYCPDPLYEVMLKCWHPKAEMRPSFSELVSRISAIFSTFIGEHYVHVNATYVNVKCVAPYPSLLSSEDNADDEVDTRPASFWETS
Chain of Angiopoietin-1 receptor (Q02763 whole entry): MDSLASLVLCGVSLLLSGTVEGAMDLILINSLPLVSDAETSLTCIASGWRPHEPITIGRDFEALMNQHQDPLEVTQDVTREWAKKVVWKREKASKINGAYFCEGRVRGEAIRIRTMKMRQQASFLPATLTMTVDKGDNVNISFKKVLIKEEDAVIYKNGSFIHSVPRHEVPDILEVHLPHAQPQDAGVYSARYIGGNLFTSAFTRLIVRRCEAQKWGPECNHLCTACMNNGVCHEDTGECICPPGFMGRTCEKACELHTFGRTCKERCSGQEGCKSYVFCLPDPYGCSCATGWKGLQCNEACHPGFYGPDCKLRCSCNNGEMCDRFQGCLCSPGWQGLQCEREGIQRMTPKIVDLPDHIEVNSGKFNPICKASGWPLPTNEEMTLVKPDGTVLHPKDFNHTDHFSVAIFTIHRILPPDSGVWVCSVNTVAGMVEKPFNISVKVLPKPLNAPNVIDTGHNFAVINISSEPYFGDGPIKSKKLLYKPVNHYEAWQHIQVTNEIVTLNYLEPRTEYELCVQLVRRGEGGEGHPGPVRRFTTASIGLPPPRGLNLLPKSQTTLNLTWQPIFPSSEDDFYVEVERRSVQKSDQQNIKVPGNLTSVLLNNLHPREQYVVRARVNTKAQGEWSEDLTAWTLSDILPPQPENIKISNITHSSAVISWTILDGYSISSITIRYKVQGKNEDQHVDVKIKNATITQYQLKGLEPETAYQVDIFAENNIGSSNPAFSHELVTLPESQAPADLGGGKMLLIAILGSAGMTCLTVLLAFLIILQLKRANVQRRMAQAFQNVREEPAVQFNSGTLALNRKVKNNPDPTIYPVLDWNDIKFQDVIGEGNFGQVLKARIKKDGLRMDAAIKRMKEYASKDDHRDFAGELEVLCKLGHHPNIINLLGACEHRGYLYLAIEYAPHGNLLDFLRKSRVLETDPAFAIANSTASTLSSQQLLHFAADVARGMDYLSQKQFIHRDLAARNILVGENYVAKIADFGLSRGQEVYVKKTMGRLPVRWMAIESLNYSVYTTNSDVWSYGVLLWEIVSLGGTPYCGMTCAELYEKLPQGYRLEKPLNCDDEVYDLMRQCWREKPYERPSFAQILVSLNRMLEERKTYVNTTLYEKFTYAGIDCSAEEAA

Compound | IC50 [1] | IC50 [2] | IC50 [3] | other results
COc1cc2nccc(Oc3ccc4c(Nc5ccc(C(F)(F)F)cc5)nn(C)c4c3)c2cc1OC | 70 nM | > 1000 nM | – | –
COc1cc2nccc(Oc3ccc4c(NC(=O)Nc5ccc(C(F)(F)F)cc5Cl)nn(C)c4c3)c2cc1OC | 8 nM | > 1000 nM | 1150 nM | –
COc1ccc(C(=O)Nc2nn(C)c3cc(Oc4ccnc5cc(OC)c(OC)cc45)ccc23)cc1 | 3 nM | > 1000 nM | 32 nM | –
COc1cc2nccc(Oc3ccc4c(NC(=O)c5ccc(Cl)cc5)nn(C)c4c3)c2cc1OC | 5 nM | > 1000 nM | 61 nM | –
COc1cccc(Nc2nn(C)c3cc(Oc4ccnc5cc(OC)c(OC)cc45)ccc23)c1 | 230 nM | > 1000 nM | – | –
COc1cc2nccc(Oc3ccc4c(NC(=O)c5ccccc5Cl)nn(C)c4c3)c2cc1OC | 8 nM | > 1000 nM | – | –
COc1cc2nccc(Oc3ccc4c(N)nn(C)c4c3)c2cc1OC | 1700 nM | > 1000 nM | – | –
CCCNc1nn(C)c2cc(Oc3ccnc4cc(OC)c(OC)cc34)ccc12 | 1110 nM | > 1000 nM | – | –
CCCCNc1nn(C)c2cc(Oc3ccnc4cc(OC)c(OC)cc34)ccc12 | 800 nM | > 1000 nM | – | –
CCNc1nn(C)c2cc(Oc3ccnc4cc(OC)c(OC)cc34)ccc12 | 370 nM | > 1000 nM | – | –
COc1cc2nccc(Oc3ccc4c(NC(=O)c5ccc(C(F)(F)F)cc5)nn(C)c4c3)c2cc1OC | 3 nM | > 1000 nM | 79 nM | –
COc1cc2nccc(Oc3ccc4c(NC(=O)c5ccc(F)c(Cl)c5)nn(C)c4c3)c2cc1OC | 3 nM | > 1000 nM | 9 nM | clearance [4]: 21.7 mL/min/kg; half-life [6]: 1.5 h; Vd [7]: 2.1 L/kg
COc1cc2nccc(Oc3ccc4c(NCc5ccccc5)nn(C)c4c3)c2cc1OC | 60 nM | > 1000 nM | – | –
COc1cc2nccc(Oc3ccc4c(Nc5ccccc5)nn(C)c4c3)c2cc1OC | 270 nM | > 1000 nM | – | –
COc1cc2nccc(Oc3ccc4c(NC(=O)C5CC5)nn(C)c4c3)c2cc1OC | 344 nM | > 1000 nM | – | –
COc1ccc(Nc2nn(C)c3cc(Oc4ccnc5cc(OC)c(OC)cc45)ccc23)cc1 | 160 nM | > 1000 nM | – | –

Compounds with a lower IC50 [1], results first:

IC50 [1] | Compound | IC50 [2] | IC50 [3] | other results
2 nM | COc1cc2nccc(Oc3ccc4c(NC(=O)c5cc(Cl)ccn5)nn(C)c4c3)c2cc1OC | > 1000 nM | 27 nM | –
1 nM | COc1ccc(NC(=O)Nc2nn(C)c3cc(Oc4ccnc5cc(OC)c(OC)cc45)ccc23)cc1 | > 1000 nM | 7 nM | –
2 nM | COc1cc2nccc(Oc3ccc4c(NC(=O)c5cc(C(F)(F)F)cc(C(F)(F)F)c5)nn(C)c4c3)c2cc1OC | > 1000 nM | 58 nM | –
2 nM | COc1cc2nccc(Oc3ccc4c(NC(=O)Nc5ccccc5)nn(C)c4c3)c2cc1OC | > 1000 nM | 6 nM | clearance [4]: 6.67 mL/min/kg; bioavailability [5]: 2%; half-life [6]: 4.3 h; Vd [7]: 2 L/kg; AUC(0-inf) [8]: 121 ng·h/mL
2 nM | COc1cc2nccc(Oc3ccc4c(NC(=O)Nc5ccc(C)cc5)nn(C)c4c3)c2cc1OC | > 1000 nM | 3 nM | –
1 nM | COc1cc2nccc(Oc3ccc4c(NC(=O)c5cccc(C(F)(F)F)c5)nn(C)c4c3)c2cc1OC | > 1000 nM | 9 nM | IC50 [9]: 121 nM; IC50 [10]: 764 nM; Cp [11]: 347 ng/mL; IC50 [12]: 3320 nM; clearance [4]: 11.7 mL/min/kg; bioavailability [5]: 46%; Activity [13]: Dose-dependent effect; IC50 [14]: 45 nM; half-life [6]: 2.2 h; Vd [7]: 1.4 L/kg; Cp [15]: 181 ng/mL; IC50 [16]: 3250 nM; IC50 [17]: 1650 nM; AUC(0-inf) [8]: 1530 ng·h/mL
2 nM | COc1cc2nccc(Oc3ccc4c(NC(=O)c5cccc(C)c5)nn(C)c4c3)c2cc1OC | > 1000 nM | 2 nM | clearance [4]: 20 mL/min/kg; bioavailability [5]: 12%; half-life [6]: 2.7 h; Vd [7]: 2.4 L/kg; AUC(0-inf) [8]: 153 ng·h/mL
1 nM | COc1ccccc1Nc1cccc2cc(Oc3ccnc4cc(OC)c(OC)cc34)ccc12 | – | – | –
2 nM | COc1cc2nccc(Oc3ccc4c(Nc5ccccc5)cccc4c3)c2cc1OC | – | – | –

— ChEMBL document CHEMBL1157345, “Evaluation of indazole-based compounds as a new class of potent KDR/VEGFR-2 inhibitors” (Bioorg Med Chem Lett, 2008)
